In PMC8137473, “Preclinical trial of a MAP4K4 inhibitor to reduce infarct size in the pig: does cardioprotection in human stem cell-derived myocytes predict success in large mammals?” (Basic Research in Cardiology, 2021):
Where “and” joins values, the source holds several entries; their conditions need not be identical. Equal entries are not always repeated.

What was measured:
MAP4K4 = MAP4K4 (Homo sapiens, UniProt O95819); test: cell-free biochemical assay, MAP4K4 inhibition; details: cell-free biochemical assays; read-out: IC50 against MAP4K4
Description: DMX-10001, a rapidly hydrolyzed phosphate pro-drug of DMX-5804, was produced by Domainex Ltd, by a modification of the latter’s synthetic route, attaching a hydrolysable phosphate group via a linker to the core of DMX-5804 (Fig. 1a). This removes a key hydrogen bonding group and prevents DMX-10001 from binding to the hinge region of the MAP4K4 kinase domain. […] Furthermore, this modest value is likely driven by minute levels of DMX-5804 either present in the sample or generated during by hydrolysis during the assay.

aqueous solubility = assay type: physicochemical
Description: The chemical structures of DMX-5804 and DMX-10001 are compared in Fig. 1a, highlighting the phosphate moiety of the pro-drug. The aqueous solubility of DMX-10001 was > 400-fold greater than that of DMX-5804, allowing it to be infused i.v. without prohibitive fluid volumes. Cleavage to DMX-5804 was detectable in rats within 5 min and largely complete within 60 min (Fig. 1b). Data from i.v. infusion at a range of dose levels in the pig were simultaneously fit to a three-compartment pharmacokinetic model. Plasma protein binding in pig was used to determine free drug levels (not shown). Various dosing regimens were simulated to avoid an initial spike in DMX-5804 whilst rapidly achieving the efficacious drug levels seen in mice after oral gavage (Fig. 1c).

[1] = plasma levels of DMX-5804 in swine during DMX-10001 infusion (efficacy study); assay type: in vivo, pig
Description: Compound concentrations after dosing were measured as follows by liquid chromatography–mass spectrometry (Pharmidex, London, UK). To 50 µL aliquots of plasma was added 200 µL of internal standard solution (methanol containing 500 ng/mL tolbutamide). Samples were then mixed (150 rpm, 20 min) and centrifuged (3000 rpm, 15 min). 75 µL of the resulting supernatant was added to 75 µL 10 mM ammonium acetate + 0.5% ammonia) and mixed (450 rpm, 15 min). Calibration standards covering the expected concentration range were prepared by spiking analyte into control matrix, with extraction and analysis in the same way as the plasma samples.
Analysis was done by liquid chromatography–mass spectrometry using a Shimadzu Nexera X2 ultra-high-pressure liquid chromatography system coupled to a Shimadzu LCMS 8060 triple quadruple mass spectrometer (Shimadzu, Milton Keynes, UK) with Waters Acquity BEH C18 (50 × 2.1)mm, 1.7 µm column (Waters, Elstree, UK) and mobile phase components 10 mM ammonium acetate + 0.5% ammonia (A) and methanol + 0.5% ammmonia (B). Gradient was 0–0.5 min 30% B; 0.5 to 2.5 min increase to 80% B; 2.5–2.6 min increase to 98% B; 2.6–3 min 98% B; 3–3.1 min decrease to 30% B; 3.1–3.5 min 30% B. Flow rate was 0.4 mL/min. Injection volume was typically 5 µL. Detection was by multiple reaction monitoring, DMX-5804 361.9 > 304.1 (positive ion), DMX-10001 470.1 > 258.0 (negative ion), and tolbutamide 271.0 > 91.0 (positive ion). Retention times were DMX-5804 2.9 min, DMX-10001 2.1 min, and tolbutamide 1.8 min. Data processing was done by Shimadzu LabSolutions Software (Shimadzu, Milton Keynes, UK).
Results were corrected for plasma protein binding by rapid equilibrium dialysis to calculate free drug levels, and were subjected to iterative computer modeling (XenoGesis, Alderley Park, UK) using Phoenix64 WinNonlin (Certara, Princeton, NJ), to devise the infusion protocol.
At several time-points (see Fig. 2), blood samples were taken in lithium-heparin-coated tubes (BD, Plymouth, UK) to analyze plasma levels of DMX-10001 (pro-drug) and DMX-5804 (active compound) and in EDTA-coated tubes (BD, Plymouth, UK) to measure heart-type fatty acid binding protein (hFABP). All blood samples were kept on ice immediately after withdrawal and were centrifuged for 10 min at 3000 rpm and 4 °C within 6 h. Plasma was aliquoted and cryopreserved at − 80 °C until analysis. Levels of DMX-10001 and DMX-5804 were determined by liquid chromatography–mass spectrometry (Pharmidex, London, UK). Porcine hFABP was analyzed as described: plasma samples were thawed on ice, diluted 10 × using the standard diluent provided with the kit, and analyzed by enzyme-linked immunosorbent assays according to the manufacturer’s instructions (Life Diagnostics, West Chester, PA). Absorbance was measured at 450 nm with a microplate photometer (Multiskan EX, Thermo Scientific, Etten-Leur, The Netherlands).

[2] = parameters: method as in PMID 30853557; details: mice, twice daily oral dosing of DMX-5804; cited from earlier work
hPSC-CMs = tested on: hPSC-CMs; parameters: method as in PMID 30853557; details: cited from earlier work
[3] = tested on: mouse myocardial infarction; parameters: method as in PMID 30853557; details: mice, even given an hour after reperfusion; cited from earlier work
376 kinases = tested on: 376 kinases; parameters: method as in PMID 30853557; details: cited from earlier work
[4] = tested on: engineered human heart tissue; parameters: method as in PMID 30853557; details: cited from earlier work
pigs = details: cited from earlier work; for cardioprotection findings in pigs: 16 (TRO40303), 5, 20 (cyclosporine), 21, 29 (cariporide)
humans = details: cited from earlier work; for cardioprotection in human trials: 16 (TRO40303), 5, 20 (cyclosporine), 21, 29 (cariporide)
[5] = pigs, pro-drug DMX-10001 infusion (60 mg/kg/h 0.5 h + 17 mg/kg/h 23.5 h)

Chain of MAP4K4 (O95819 whole entry, species assumed, the tested form may be a part): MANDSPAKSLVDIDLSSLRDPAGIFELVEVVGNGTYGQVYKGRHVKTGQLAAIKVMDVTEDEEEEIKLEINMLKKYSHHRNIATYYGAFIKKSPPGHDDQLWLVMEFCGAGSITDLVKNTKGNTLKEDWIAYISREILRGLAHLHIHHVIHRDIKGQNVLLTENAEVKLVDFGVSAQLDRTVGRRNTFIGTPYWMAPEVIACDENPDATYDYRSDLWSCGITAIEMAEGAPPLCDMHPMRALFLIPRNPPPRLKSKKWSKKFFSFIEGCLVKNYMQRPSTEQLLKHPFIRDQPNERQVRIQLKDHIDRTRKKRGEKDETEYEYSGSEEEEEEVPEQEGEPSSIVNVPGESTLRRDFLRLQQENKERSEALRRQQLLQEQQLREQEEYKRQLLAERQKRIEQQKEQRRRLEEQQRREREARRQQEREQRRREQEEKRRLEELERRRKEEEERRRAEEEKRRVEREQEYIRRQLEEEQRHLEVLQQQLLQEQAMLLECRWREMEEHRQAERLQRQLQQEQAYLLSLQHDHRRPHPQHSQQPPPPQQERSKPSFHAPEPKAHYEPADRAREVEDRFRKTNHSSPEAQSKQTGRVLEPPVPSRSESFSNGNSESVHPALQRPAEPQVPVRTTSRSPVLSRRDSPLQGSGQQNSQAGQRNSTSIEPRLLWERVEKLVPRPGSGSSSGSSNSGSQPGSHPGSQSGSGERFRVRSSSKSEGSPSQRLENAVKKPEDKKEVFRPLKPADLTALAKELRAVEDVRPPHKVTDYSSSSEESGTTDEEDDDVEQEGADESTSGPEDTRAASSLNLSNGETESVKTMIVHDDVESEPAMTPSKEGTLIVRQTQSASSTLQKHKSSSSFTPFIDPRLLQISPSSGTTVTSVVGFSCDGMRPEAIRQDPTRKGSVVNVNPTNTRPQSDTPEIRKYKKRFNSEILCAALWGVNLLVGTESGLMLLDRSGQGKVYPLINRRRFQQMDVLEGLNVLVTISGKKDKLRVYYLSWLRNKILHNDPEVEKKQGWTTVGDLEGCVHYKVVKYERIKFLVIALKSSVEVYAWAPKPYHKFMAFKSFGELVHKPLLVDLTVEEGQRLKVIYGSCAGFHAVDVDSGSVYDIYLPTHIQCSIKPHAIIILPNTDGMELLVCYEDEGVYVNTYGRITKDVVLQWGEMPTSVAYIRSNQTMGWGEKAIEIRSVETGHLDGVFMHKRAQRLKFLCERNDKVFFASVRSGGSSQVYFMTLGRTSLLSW

In the case of `COCCOc1ccc(-c2cn(-c3ccccc3)c3nc[nH]c(=O)c23)cc1` [DMX-5804], the IC50 (MAP4K4) is reported as 3 nM, the aqueous solubility (aqueous solubility) is reported as “inadequate for i.v. delivery” and the “target level of DMX-5804, based on successful reduction of IS in mice” value ([1]; after infusion with DMX-10001) is reported as “achieved in all animals”. The “levels of DMX-5804 generated in pigs relative to those in mice” value ([1]; at the corresponding times after injury) was “at least tenfold”, the “free AUC0-24 of DMX-5804” value [1, 5] was 27,900 h.nM and the “free Cav of DMX-5804” value [1, 5] was 1,160 nM. For the same molecule, the “DMX-5804 concentrations relative to the levels that rescued hPSC-CMs and reduced IS in mice” value ([1]; swine, all times tested beginning 30 min after the start of DMX-10001 infusion) was “> fivefold”, the “free AUC0–22 of DMX-5804” value [2] was 2,200 h.nM and the “death from oxidative stress in hPSC-CMs” value (hPSC-CMs) was “suppressed death from oxidative stress”. For the same molecule, the EC50 (hPSC-CMs; vCor.4U cells treated with 400 μM H2O2, read-out: EC50 for reducing cell death) was 500 nM, the “reduction of infarct size (IS)” value [3] was 50% and > 50% and the “selectivity among 376 kinases” value (376 kinases) was “interfering potently just with MINK1/MAP4K6 and TNIK/MAP4K7”. The “cell death in engineered human heart tissue” value [4] was “blocked cell death”.
For `CC(C)CCC[C@@H](C)[C@H]1CC[C@H]2[C@@H]3CC/C(=N\O)[C@](C)(CCCO)[C@H]3CC[C@]12C` [TRO40303], the “cardioprotection findings in pigs” value (pigs) is given as “weak or negative findings” and the “cardioprotection in human trials” value (humans) is given as “failures of cardioprotection”.
For `Nc1ncnc2c1ncn2[C@@H]1O[C@H](CO)[C@@H](O)[C@H]1O` [adenosine], the protection in swine (pigs; bolus) is listed as “gave no protection”.
In the case of `CC(C)c1ccc(C(=O)NC(=N)N)cc1S(C)(=O)=O` [cariporide], the “cardioprotection findings in pigs” value (pigs) is listed as “weak or negative findings” and the “cardioprotection in human trials” value (humans) is listed as “failures of cardioprotection”.
In the case of liraglutide, the results in pigs (pigs) is given as “negative results” and the “myocardial salvage in humans” value (humans) is given as “improved myocardial salvage”.
